# Measured values from article PMC11173529, “Structure–Activity Relationship Studies in a Series of Xanthine Inhibitors of SLACK Potassium Channels” (Molecules, 2024).
# Biological target: T1, human A934T SLACK (Homo sapiens, UniProt Q5JUK3, A915T)
# T1 construct: host or cells: CHO-K1
# T1 sequence (Q5JUK3 1-1235 isoform Q5JUK3-3 A934T): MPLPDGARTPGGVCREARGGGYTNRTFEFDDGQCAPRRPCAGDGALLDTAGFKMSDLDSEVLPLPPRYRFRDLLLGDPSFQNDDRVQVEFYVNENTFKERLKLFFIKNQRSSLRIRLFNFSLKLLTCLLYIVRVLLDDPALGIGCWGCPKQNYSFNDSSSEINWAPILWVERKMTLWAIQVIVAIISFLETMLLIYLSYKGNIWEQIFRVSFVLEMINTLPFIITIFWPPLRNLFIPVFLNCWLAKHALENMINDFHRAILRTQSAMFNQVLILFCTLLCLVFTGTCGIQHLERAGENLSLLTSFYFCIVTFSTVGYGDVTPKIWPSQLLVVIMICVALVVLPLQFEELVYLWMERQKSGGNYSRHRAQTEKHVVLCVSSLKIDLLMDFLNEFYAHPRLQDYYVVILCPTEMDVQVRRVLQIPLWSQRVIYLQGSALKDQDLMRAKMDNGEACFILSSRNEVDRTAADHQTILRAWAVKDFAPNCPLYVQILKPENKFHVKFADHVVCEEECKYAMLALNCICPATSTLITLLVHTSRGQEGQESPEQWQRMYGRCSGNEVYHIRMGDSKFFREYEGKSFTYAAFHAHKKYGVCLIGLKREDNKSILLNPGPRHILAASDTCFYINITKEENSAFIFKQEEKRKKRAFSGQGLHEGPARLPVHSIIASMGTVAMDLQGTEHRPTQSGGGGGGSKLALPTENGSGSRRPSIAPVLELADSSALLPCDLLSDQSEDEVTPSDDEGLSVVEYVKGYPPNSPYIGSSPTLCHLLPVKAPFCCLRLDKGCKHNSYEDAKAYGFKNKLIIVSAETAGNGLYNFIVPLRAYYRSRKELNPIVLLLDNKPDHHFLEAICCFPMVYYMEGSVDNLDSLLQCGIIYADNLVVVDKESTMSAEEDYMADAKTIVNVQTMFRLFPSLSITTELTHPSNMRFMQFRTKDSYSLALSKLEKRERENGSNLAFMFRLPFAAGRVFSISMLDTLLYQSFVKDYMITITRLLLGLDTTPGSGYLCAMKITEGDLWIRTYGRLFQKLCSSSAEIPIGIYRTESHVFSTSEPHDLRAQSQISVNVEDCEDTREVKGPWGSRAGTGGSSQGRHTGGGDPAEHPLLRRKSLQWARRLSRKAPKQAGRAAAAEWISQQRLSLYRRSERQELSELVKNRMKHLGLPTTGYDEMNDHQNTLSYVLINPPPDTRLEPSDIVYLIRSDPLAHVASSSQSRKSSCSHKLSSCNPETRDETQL
# Test: Whole-cell APC in CHO cells stably expressing human A934T SLACK
# Assay type: cell-based
# Conditions: APC, CHO cells
# Excerpt: Development of a useful SLACK inhibitor in vivo tool will require potent activity at the corresponding mouse ortholog as studies in appropriate mouse models will be critical. Thus, we evaluated analogs 32 and 48 in our APC assay using CHO cells stably expressing mouse WT SLACK (Table 6). […] We were also eager to evaluate the same compounds with regard to their ability to inhibit clinically relevant GOF SLACK mutants. Both the C-terminus A934T mutant and transmembrane G288S mutant have been associated with clinical cases of EIMFS [3, 7].
# Stably transfected monoclonal HEK293 cell lines expressing Slick, Maxi-K α1/β3, Maxi-K α1/β4, CaV3.2, GIRK 1/2, KV2.1, KV7.2, NaV1.7, and TASK-1 were generated as previously described. Stably transfected monoclonal HEK293 cell lines expressing hERG were generated as previously described. CHO-K1 cells expressing human Slack and disease-associated human Slack mutations, G288S and A934T, were generated by transfecting a PiggyBac TRE mammalian expression vector (VectorBuilder, Chicago, IL, USA) containing KCNT1. FuGENE 6 (Promega, Madison, WI, USA) transfection reagent and protocol, together with Opti-MEM (Thermo Fisher Scientific, Walkham, MA, USA), were utilized.
# Automated patch-clamp recording was performed with a SyncroPatch 768 PE system (Nanion, Munich, Germany) as previously described. Whole-cell recordings were performed at room temperature. Cells were harvested by first washing with PBS without Mg^2+ or Ca^2+ (Gibco, Billings, MT, USA) to remove cell culture media, followed by dissociation with TryPLE (Gibco, Billings, MT, USA). Cells were then resuspended and diluted to 100,000 cells/mL in external solution. External solution contained 105 mM NaCl, 4 mM KCl, 1 mM MgCl2, 5 mM CaCl2, 10 mM HEPES, and 40 mM N-Methyl-D-glucamine chloride, titrated to pH of 7.4 and osmolarity of 300 mOsm/kg; internal solution contained 70 mM NaCl, 70 mM KF, 10 mM KCl, 5 mM EGTA, and 5 mM HEPES, titrated to a pH of 7.2 and osmolarity of 295 mOsm/kg.
# The APC protocol was set as follows: Cells were held at a […] of −80 mV for 100 ms, then a ramp protocol was performed from −100 mV to 80 mV at 0.4 mV/ms, followed by holding the cell at −80 mV for another 100 ms, then steps were performed at −20 mV, 0 mV, +20 mV, +40 mV, and +60 mV for 100 ms of each step. Whole-cell currents were measured at 0 mV and normalized to current after external buffer addition. […] To obtain the concentration-response relationship graphs and IC50 values, we take the median value of the last 7 current amplitude values obtained for each set of data points collected for a given concentration at a particular step.
row,IC50 [nM],Structure (SMILES)
1,590,CCCCN(Cc1ccc(F)cc1)c1nc2c(c(=O)n(Cc3cccc(OC)c3)c(=O)n2C)n1C [Analog 80]
2,1200,COc1cccc(Cn2c(=O)c3c(nc(N(Cc4ccc(F)cc4)CC4CC4)n3C)n(C)c2=O)c1 [Analog 81]

# More lines, now with the values behind:
row,Structure (SMILES),IC50 [nM]
1,COc1cccc(Cn2c(=O)c3c(nc(N(C)Cc4ccccc4)n3C)n(C)c2=O)c1 [Analog 32],780
2,CN(Cc1cccc(F)c1)c1nc2c(c(=O)n(Cc3ccccc3)c(=O)n2C)n1C [Analog 48],820
3,CCCCN(Cc1cccc(F)c1)c1nc2c(c(=O)n(Cc3cccc(OC)c3)c(=O)n2C)n1C [Analog 78],350
4,COc1cccc(Cn2c(=O)c3c(nc(N(Cc4cccc(F)c4)CC4CC4)n3C)n(C)c2=O)c1 [Analog 79],1000

# Same assay, conditions: maximum inhibition at 30 µM standardized to VU0606170 (100%)
row,Structure (SMILES),Imax [%]
1,COc1cccc(Cn2c(=O)c3c(nc(N(C)Cc4ccccc4)n3C)n(C)c2=O)c1 [Analog 32],99
2,CN(Cc1cccc(F)c1)c1nc2c(c(=O)n(Cc3ccccc3)c(=O)n2C)n1C [Analog 48],100
